Source: patent publication US12281122B1, “PI3K inhibitors” (Cogent Biosciences, Inc., priority 2023, dated 2025)

Key:
[1] = test system: SKBR3 (PI3Kα-Wild Type) cell line; assay: HTRF phospho-AKT(S473) cell assay in SKBR3 cells; format: cell-based, human
In short: (§1)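 pAKT(S473) in lysates read by HTRF after a 2 h, 37 °C compound exposure (12-point 1:3 series, max 0.5% DMSO). SKBR3 (wild type, top 10 μM) received 70 ng/ml PDGF-BB during the final 15 min; T47D (H1047R, top 5 μM) was unstimulated. IC50 values derived from the dose-response.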

[2] = test system: T47D (PI3Kα-H1047R) cell line; assay: HTRF phospho-AKT(S473) cell assay in T47D cells; format: cell-based, human
In short: as §1

[3] = Homo sapiens, SK-BR-3; HTRF phospho-AKT(S473), SKBR3 (PI3Kα-Wild Type) cells, 2 hours compound incubation, PDGF-BB stimulated
[4] = Homo sapiens; HTRF phospho-AKT(S473), T47D (PI3Kα-H1047R) cells, 2 hours compound incubation
[5] = Homo sapiens, SK-BR-3; SKBR3 (PI3Kα-Wild Type) cells, HTRF phospho-AKT(S473), 2 hours compound incubation, PDGF-BB stimulated
[6] = Homo sapiens; T47D (PI3Kα-H1047R) cells, HTRF phospho-AKT(S473), 2 hours compound incubation

Row | IC50 [1, 3] [µM] | IC50 [2, 4] [µM] | IC50 [1, 5] [µM] | IC50 [2, 6] [µM] | SMILES
1 | ≥ 5 | 0.25 to 0.5 | – | – | Cc1cc([C@@H](C)Nc2ccc(Cl)nc2C(=O)NS(C)(=O)=O)c2nc(N3C[C@H]4C[C@@H]3CN4c3cnc(C)cn3)n(C)c(=O)c2c1 [Compound 577, 6-chloro-3-(((R)-1-(3,6-dimethyl-2-((1R,4R)-5-(5-methylpyrazin-2-yl)-2,5-diazabicyclo[2.2.1]heptan-2-yl)-4-oxo-3,4-dihydroquinazolin-8-yl)ethyl)amino)-N-(methylsulfonyl) picolinamide]
2 | 1 to 5 | 0.25 to 0.5 | – | – | Cc1cc([C@@H](C)Nc2ccc(Cl)nc2C(=O)NS(C)(=O)=O)c2nc(N3CC[C@H](Oc4cnc(C)nc4)C3)n(C)c(=O)c2c1 [Compound 512, 6-chloro-3-(((R)-1-(3,6-dimethyl-2-((S)-3-((2-methylpyrimidin-5-yl)oxy)pyrrolidin-1-yl)-4-oxo-3,4-dihydroquinazolin-8-yl)ethyl)amino)-N-(methylsulfonyl) picolinamide]
3 | 1 to 5 | < 0.25 | – | – | Cc1cc([C@@H](C)Nc2ccc(Cl)nc2C(=O)NS(C)(=O)=O)c2nc(N3C[C@@H]4[C@H](C3)[C@H]4c3cc(C)on3)n(C)c(=O)c2c1 [Compound 665, 6-chloro-3-(((R)-1-(3,6-dimethyl-2-((1R,5S,6R)-6-(5-methylisoxazol-3-yl)-3-azabicyclo[3.1.0]hexan-3-yl)-4-oxo-3,4-dihydroquinazolin-8-yl)ethyl)amino)-N-(methylsulfonyl) picolinamide]
4 | 1 to 5 | < 0.25 | – | – | Cc1cc([C@@H](C)Nc2ccc(Cl)nc2C(=O)NS(C)(=O)=O)c2nc(N3Cc4nccnc4C3)n(C)c(=O)c2c1 [Compound 534, (R)-6-chloro-3-((1-(2-(5,7-dihydro-6H-pyrrolo[3,4-b]pyrazin-6-yl)-3,6-dimethyl-4-oxo-3,4-dihydroquinazolin-8-yl)ethyl)amino)-N-(methylsulfonyl) picolinamide]
5 | ≥ 5 | 0.5 to 1 | – | – | Cc1ccc(N2C[C@H]3C[C@@H]2CN3c2nc3c([C@@H](C)Nc4ccc(Cl)nc4C(=O)NS(C)(=O)=O)cc(C)cc3c(=O)n2C)nc1 [Compound 609, 6-chloro-3-(((R)-1-(3,6-dimethyl-2-((1R,4R)-5-(5-methylpyridin-2-yl)-2,5-diazabicyclo [2.2.1]heptan-2-yl)-4-oxo-3,4-dihydroquinazolin-8-yl)ethyl)amino)-N-(methylsulfonyl) picolinamide]
6 | ≥ 5 | 0.25 to 0.5 | – | – | COc1cc(O[C@H]2CCN(c3nc4c([C@@H](C)Nc5ccc(Cl)nc5C(=O)NS(C)(=O)=O)cc(C)cc4c(=O)n3C)C2)c(F)cn1 [Compound 611, 6-chloro-3-(((R)-1-(2-((S)-3-((5-fluoro-2-methoxypyridin-4-yl)oxy)pyrrolidin-1-yl)-3,6-dimethyl-4-oxo-3,4-dihydroquinazolin-8-yl)ethyl)amino)-N-(methylsulfonyl) picolinamide]
7 | 1 to 5 | < 0.25 | – | – | Cc1cnc(C2[C@H]3CN(c4nc5c([C@@H](C)Nc6ccc(Cl)nc6C(=O)NS(C)(=O)=O)cc(C)cc5c(=O)n4C)C[C@@H]23)nc1 (stereo partly drawn) [Compound 515, 6-chloro-3-(((1R)-1-(3,6-dimethyl-2-((1R,5S)-6-(5-methylpyrimidin-2-yl)-3-azabicyclo[3.1.0]hexan-3-yl)-4-oxo-3,4-dihydroquinazolin-8-yl)ethyl)amino)-N-(methylsulfonyl) picolinamide]
8 | ≥ 5 | 0.25 to 0.5 | – | – | Cc1cc([C@@H](C)Nc2ccc(Cl)nc2C(=O)NS(C)(=O)=O)c2nc(N3CCC[C@@H](c4nccc(C)n4)C3)n(C)c(=O)c2c1 (relative stereo) [Compound 647, 6-chloro-3-(((R)-1-(3,6-dimethyl-2-((R*)-3-(4-methylpyrimidin-2-yl)piperidin-1-yl)-4-oxo-3,4-dihydroquinazolin-8-yl)ethyl)amino)-N-(methylsulfonyl) picolinamide]
9 | – | – | 1 to 5 | 0.25 to 0.5 | COc1ccn(C2CCN(c3nc4c([C@@H](C)Nc5ccc(Cl)nc5C(=O)NS(C)(=O)=O)cc(C)cc4c(=O)n3C)CC2)n1 [Compound 317, (R)-6-chloro-3-((1-(2-(4-(3-methoxy-1H-pyrazol-1-yl)piperidin-1-yl)-3,6-dimethyl-4-oxo-3,4-dihydroquinazolin-8-yl)ethyl)amino)-N-(methylsulfonyl) picolinamide]

Second part, the compound before the results:

Row | SMILES | IC50 [1, 3] [µM] | IC50 [2, 4] [µM] | IC50 [1, 5] [µM] | IC50 [2, 6] [µM]
10 | Cc1cc([C@@H](C)Nc2ccc(Cl)nc2C(=O)NS(C)(=O)=O)c2nc(N3C[C@@H]4[C@H](C3)[C@H]4c3cc4n(n3)CCC4)n(C)c(=O)c2c1 [Compound 477, 6-chloro-3-(((R)-1-(2-((1R,5S,6R)-6-(5,6-dihydro-4H-pyrrolo[1,2-b]pyrazol-2-yl)-3-azabicyclo[3.1.0]hexan-3-yl)-3,6-dimethyl-4-oxo-3,4-dihydroquinazolin-8-yl)ethyl)amino)-N-(methylsulfonyl) picolinamide] | 1 to 5 | < 0.25 | – | –
11 | Cc1cc([C@@H](C)Nc2ccc(Cl)nc2C(=O)NS(C)(=O)=O)c2nc(N3Cc4cn(C5CC(F)(F)C5)nc4C3)n(C)c(=O)c2c1 [Compound 693, (R)-6-chloro-3-((1-(2-(2-(3,3-difluorocyclobutyl)-2,6-dihydropyrrolo[3,4-c]pyrazol-5(4H)-yl)-3,6-dimethyl-4-oxo-3,4-dihydroquinazolin-8-yl)ethyl)amino)-N-(methylsulfonyl) picolinamide] | 1 to 5 | < 0.25 | – | –
12 | CCn1c(N2C[C@@H]3[C@H](C2)[C@H]3c2cn(C)nn2)nc2c([C@@H](C)Nc3ccc(Cl)nc3C(=O)NS(C)(=O)=O)cc(C)cc2c1=O [Compound 622, 6-chloro-3-(((R)-1-(3-ethyl-6-methyl-2-((1R,5S,6R)-6-(1-methyl-1H-1,2,3-triazol-4-yl)-3-azabicyclo[3.1.0]hexan-3-yl)-4-oxo-3,4-dihydroquinazolin-8-yl)ethyl)amino)-N-(methylsulfonyl) picolinamide] | 1 to 5 | < 0.25 | – | –
13 | COC(=O)NS(=O)(=O)c1nc(Cl)ccc1N[C@H](C)c1cc(C)cc2c(=O)n(C)c(N3Cc4ccc(F)cc4C3)nc12 [Compound 131, methyl (R)-((6-chloro-3-((1-(2-(5-fluoroisoindolin-2-yl)-3,6-dimethyl-4-oxo-3,4-dihydroquinazolin-yl)ethyl)amino)pyridin-2-yl)sulfonyl) carbamate] | – | – | ≥ 5 | 0.5 to 1
14 | Cc1cc([C@@H](C)Nc2ccc(Cl)nc2C(=O)NS(C)(=O)=O)c2nc(N3CCC4(CCc5c(cnn5C)C4)CC3)n(C)c(=O)c2c1 [Compound 344, (R)-6-chloro-3-((1-(3,6-dimethyl-2-(1-methyl-1,4,6,7-tetrahydrospiro[indazole-5,4′-piperidin]-1′-yl)-4-oxo-3,4-dihydroquinazolin-8-yl)ethyl)amino)-N-(methylsulfonyl) picolinamide] | – | – | ≥ 5 | < 0.25
15 | Cc1cc([C@@H](C)Nc2ccc(Cl)nc2C(=O)NS(C)(=O)=O)c2nc(N3C[C@@H]4[C@H](C3)[C@H]4n3cc(C(F)(F)F)cn3)n(C)c(=O)c2c1 [Compound 741, 6-chloro-3-(((R)-1-(3,6-dimethyl-4-oxo-2-((1R,5S,6S)-6-(4-(trifluoromethyl)-1H-pyrazol-1-yl)-3-azabicyclo[3.1.0]hexan-3-yl)-3,4-dihydroquinazolin-8-yl)ethyl)amino)-N-(methylsulfonyl) picolinamide] | ≥ 5 | 0.5 to 1 | – | –
16 | Cc1cc([C@@H](C)Nc2ccc(Cl)nc2C(=O)NS(C)(=O)=O)c2nc(N3CCC4(CCN(c5ccn(C)n5)CC4)CC3)n(C)c(=O)c2c1 [Compound 361, (R)-6-chloro-3-((1-(3,6-dimethyl-2-(9-(1-methyl-1H-pyrazol-3-yl)-3,9-diazaspiro[5.5]undecan-3-yl)-4-oxo-3,4-dihydroquinazolin-8-yl)ethyl)amino)-N-(methylsulfonyl) picolinamide] | – | – | ≥ 5 | 0.25 to 0.5
17 | Cc1cc([C@@H](C)Nc2ccc(Cl)nc2C(=O)NS(C)(=O)=O)c2nc(N3C[C@@H]4C[C@H]3CN4c3ncc(C#N)cc3F)n(C)c(=O)c2c1 [Compound 579, 6-chloro-3-(((R)-1-(2-((1S,4S)-5-(5-cyano-3-fluoropyridin-2-yl)-2,5-diazabicyclo [2.2.1]heptan-2-yl)-3,6-dimethyl-4-oxo-3,4-dihydroquinazolin-8-yl)ethyl)amino)-N-(methylsulfonyl) picolinamide] | ≥ 5 | 0.25 to 0.5 | – | –
18 | Cc1cc([C@@H](C)Nc2ccc(Cl)nc2C(=O)NS(C)(=O)=O)c2nc(N3Cc4cn(C(F)F)nc4C3)n(C)c(=O)c2c1 [Compound 176, (R)-6-chloro-3-((1-(2-(2-(difluoromethyl)-2,6-dihydropyrrolo[3,4-c]pyrazol-5(4H)-yl)-3,6-dimethyl-4-oxo-3,4-dihydroquinazolin-8-yl)ethyl)amino)-N-(methylsulfonyl) picolinamide] | – | – | 1 to 5 | < 0.25
19 | Cc1cc([C@@H](C)Nc2ccc(Cl)nc2C(=O)NS(C)(=O)=O)c2nc(N3CCC(n4cc(C(F)(F)F)cn4)CC3)n(C)c(=O)c2c1 [Compound 681, (R)-6-chloro-3-((1-(3,6-dimethyl-4-oxo-2-(4-(4-(trifluoromethyl)-1H-pyrazol-1-yl)piperidin-1-yl)-3,4-dihydroquinazolin-8-yl)ethyl)amino)-N-(methylsulfonyl) picolinamide] | ≥ 5 | 0.25 to 0.5 | – | –
